Measured values reported in patent publication US4323581A, “Method of treating carcinogenesis” (priority 1978, dated 1982).

How the values were obtained:
[1] = Accumulation in the liver; format: in vivo; details: unlike the natural retinyl esters
[2] = U.S. Pat. No. 4,108,880; cited from earlier work
LD50 in Swiss mice = details: mouse, in vivo
Description: The drug is administered at regular intervals, conveniently at meal times or once daily.

epithelial cancer = assay: Effectiveness in preventing epithelial cancer in mammals; format: in vivo; details: at reasonable dose levels
breast cancer [3] = assay: Prevention of breast cancer in rats, oral dosing; format: in vivo; details: oral doses of 32 and 64 mg/kg/day
[4] = Toxicity compared to retinyl acetate; details: in vivo
tracheal epithelium [5] = assay: Reversal of keratinized squamous metaplastic lesions of vitamin A deficiency in tracheal organ culture; format: cell-based; details: for % of Cultures with Keratin and Keratohyaline Granules / % of Cultures with Respective Amounts of Squamous Metaplasia: None / % of Cultures with Respective Amounts of Squamous Metaplasia: Marked / % of Cultures with Respective Amounts of Squamous Metaplasia: Mild / % of Cultures with Respective Amounts of Squamous Metaplasia: Minimal / % of Cultures with Respective Amounts of Squamous Metaplasia: Severe: collected day 10; for % of Cultures with Respective Amounts of Squamous Metaplasia: Marked: marked = 10-40% squamous; for % of Cultures with Respective Amounts of Squamous Metaplasia: Mild: mild = 2-10% squamous; for % of Cultures with Respective Amounts of Squamous Metaplasia: Minimal: minimal = less than 2% squamous; for % of Cultures with Respective Amounts of Squamous Metaplasia: Severe: severe = more than 40% squamous
From the text: N-(4-hydroxyphenyl)-all-trans-retinamide was compared with retinoic acid in an in vitro screening model for identifying retinoids having activity in preventing carcinogenesis in epithelial tissue. The experimental method, which is described in Experimental Lung Cancer:Intern'l Symp, 575-82, 1974, involves reversal of keratinization in tracheal organ culture.
In brief summary, in the absence of retinoic acid or a synthetic retinoid having similar activity, the test organ culture of tracheal epithelium undergoes abnormal differentiation. Addition of small concentrations of retinoic acid (as low as 10^-9 M) will cause reversion to normal tracheal epithelium. Test compounds are compared in activity to retinoic acid or another active standard both as regards squamous metaplasia and keratin production, both of which are measures of abnormal development of the epithelial culture.
In carrying out the tests reported in Table I, all tracheas were cultured for the first 3 days in medium without retinoid. At this time, some tracheas were collected, while the rest were cultured for a further week in medium containing either no retinoid, or retinoid added at the concentrations shown. These tracheas were collected on the 10th day of culture. Cultures were graded as to the percentage of their total epithelium showing squamous metaplasia on eight cross sections from the middle of each trachea. If more than 40% of the total epithelial length was squamous, it was graded as having severe squamous metaplasia; between 10-40% was graded as marked; between 2-10% was graded as mild; and less than 2% was graded as minimal.

Systemic toxicity = details: in vivo
[6] = compared with sunscreening amounts of retinoic acid; U.S. Pat. No. 4,108,880; cited from earlier work
[7] = tested on: MNU-induced mammary cancer; assay: Inhibition of mammary carcinogenesis induced by N-methyl-N-nitrosourea (MNU), rat breast cancer; format: in vivo, Female Sprague-Dawley rats; details: Table III
From the text: On the basis of the encouraging results summarized in the foregoing example, N-(4-hydroxyphenyl)-all-trans-retinamide was compared to retinyl acetate in the experimental assay for efficacy against rat breast cancer described in Nature Vol. 267, pp 620-621 (June 16, 1977), which measures the ability to inhibit mammary carcinogenesis induced by N-methyl-N-nitrosourea (MNU). The results of further extension of the tests, comparing the 4-hydroxyphenyl retinamide only to placebo, after 18 weeks with high dose MNU and 21 weeks with low dose MNU, are set forth in Table III. The results using these two different levels of MNU and two dietary levels of retinoid are shown graphically in FIGS. 1 and 2 after 18 weeks of testing.
Animals: Female Sprague-Dawley rats obtained from ARS Sprague-Dawley.
Crystalline MNU. Rats received 2 I.V. injections at 50 and 57
High dose is 50 mg/kg; low dose 15 mg/kg.
Retinoids were dissolved in solvent and blended into the diets.
placed on diets 3 days after last MNU injection.
50 gm trioctanoin:ethanol (3:1), 0.05 ml Tenox 20, 0.05 ml
50 gm retinoid solvent/kg diet.
High dose is 50 mg/kg; low dose 15 mg/kg. Rats on high dose of
sacrificed after 18 weeks.
Placebo: 50 gm retinoid solvent/kg diet.

[8] = Target specificity in concentrating at the breast; details: in vivo
[9] = tested on: MNU-induced mammary cancer; assay: Inhibition of mammary carcinogenesis induced by N-methyl-N-nitrosourea (MNU), rat breast cancer; format: in vivo, Female Sprague-Dawley rats
breast cancer [10] = details: in vivo; cited from earlier work
chemical carcinogenesis = details: in vivo; cited from earlier work
[11] = cited from earlier work; for toxicity at high dosage levels: higher mammals
tracheal epithelium [12] = details: small concentrations, as low as; cited from earlier work
[13] = 18 weeks, MNU high dose (50 mg/kg), 391 mg/kg diet
[14] = 21 weeks, MNU low dose (15 mg/kg), 391 mg/kg diet
[15] = Table II, 73 days, MNU high dose (50 mg/kg), 391 mg/kg diet
[16] = Table II, 73 days, MNU high dose (50 mg/kg), 782 mg/kg diet
[17] = Table II, 73 days, MNU low dose (15 mg/kg), 391 mg/kg diet
[18] = Table II, 73 days, MNU low dose (15 mg/kg), 782 mg/kg diet
[19] = Table II, 73 days, saline, 391 mg/kg diet
[20] = Table II, 73 days, saline, 782 mg/kg diet
[21] = Table III, 18 weeks, MNU high dose (50 mg/kg), 782 mg/kg diet
[22] = Table III, 21 weeks, MNU low dose (15 mg/kg), 782 mg/kg diet
[23] = Table III, saline, 391 mg/kg diet
[24] = Table III, saline, 782 mg/kg diet
[25] = Table II, 73 days, MNU high dose (50 mg/kg), 328 mg/kg diet
[26] = Table II, 73 days, MNU high dose (50 mg/kg), 656 mg/kg diet
[27] = Table II, 73 days, MNU low dose (15 mg/kg), 328 mg/kg diet
[28] = Table II, 73 days, MNU low dose (15 mg/kg), 656 mg/kg diet
[29] = Table II, 73 days, saline, 328 mg/kg diet
[30] = Table II, 73 days, saline, 656 mg/kg diet

## CC1=C(/C=C/C(C)=C/C=C/C(C)=C/C(=O)Nc2ccc(O)cc2)C(C)(C)CCC1 [4-Hydroxyphenyl Retinamide, N-(4-hydroxyphenyl)-all-trans-retinamide]
[1]
  accumulation in the liver: does not accumulate in the liver in appreciable amounts
[2]
  ultraviolet absorption: good ultraviolet absorber
LD50 in Swiss mice; ip
  LD50: 436 mg/kg
LD50 in Swiss mice; po
  LD50: > 400 mg/kg
Epithelial cancer
  effectiveness in preventing epithelial cancer in mammals: good effectiveness in preventing epithelial cancer in mammals
Breast cancer [3]
  prevention of breast cancer in rats: very effective in preventing breast cancer in rats
[4]
  toxicity relative to retinyl acetate: less toxic
Tracheal epithelium [5]; 10^-8 M
  efficacy relative to retinoic acid: at least as efficacious as retinoic acid
  % of Cultures with Keratin and Keratohyaline Granules: 0%
  % of Cultures with Respective Amounts of Squamous Metaplasia: None: 20%
  % of Cultures with Respective Amounts of Squamous Metaplasia: Marked: 0%
  % of Cultures with Respective Amounts of Squamous Metaplasia: Mild: 0%
  % of Cultures with Respective Amounts of Squamous Metaplasia: Minimal: 80%
  % of Cultures with Respective Amounts of Squamous Metaplasia: Severe: 0%
Tracheal epithelium [5]; 10^-9 M
  efficacy relative to retinoic acid: nearly as efficaceous
  % of Cultures with Keratin and Keratohyaline Granules: 40%
  % of Cultures with Respective Amounts of Squamous Metaplasia: None: 20%
  % of Cultures with Respective Amounts of Squamous Metaplasia: Marked: 0%
  % of Cultures with Respective Amounts of Squamous Metaplasia: Mild: 30%
  % of Cultures with Respective Amounts of Squamous Metaplasia: Minimal: 20%
  % of Cultures with Respective Amounts of Squamous Metaplasia: Severe: 30%
Tracheal epithelium [5]; 10^-10 M
  efficacy: virtually inefficacious
  % of Cultures with Keratin and Keratohyaline Granules: 100%
  % of Cultures with Respective Amounts of Squamous Metaplasia: None: 0%
  % of Cultures with Respective Amounts of Squamous Metaplasia: Marked: 75%
  % of Cultures with Respective Amounts of Squamous Metaplasia: Mild: 12%
  % of Cultures with Respective Amounts of Squamous Metaplasia: Minimal: 0%
  % of Cultures with Respective Amounts of Squamous Metaplasia: Severe: 12%
Systemic toxicity
  systemic toxicity: low systemic toxicity
[6]
  irritating effect on skin: does not have the irritating effect on skin that would be expected from the use of sunscreening amounts of retinoic acid
[7]; [13]
  Mammary Tumor Incidence: 13/16
  Mammary Tumor Incidence (%): 81%
[7]; 18 weeks, MNU high dose (50 mg/kg), 782 mg/kg diet
  Mammary Tumor Incidence (%): 64%
[7]; [14]
  Mammary Tumor Incidence (%): 12%
  Total Number of Tumors: 5
[7]; saline, 391 mg/kg diet
  Mammary Tumor Incidence: 0/10
[7]; saline, 782 mg/kg diet
  Total Number of Tumors: 0
[8]
  target specificity in concentrating at the breast: adequate target specificity in concentrating at the breast
[9]; MNU-induced mammary carcinogenesis
  efficacy relative to retinyl acetate: substantially as efficacious as retinyl acetate
[9]; [15]
  Mammary Tumor Incidence: 5/16
  Mammary Tumor Incidence (%): 31%
[9]; [16]
  Mammary Tumor Incidence: 0/17
  Mammary Tumor Incidence (%): 0%
[9]; [17]
  Mammary Tumor Incidence: 0/40
  Mammary Tumor Incidence (%): 0%
[9]; [18]
  Mammary Tumor Incidence: 0/39
  Mammary Tumor Incidence (%): 0%
[9]; [19]
  Mammary Tumor Incidence: 0/10
  Mammary Tumor Incidence (%): 0%
[9]; [20]
  Mammary Tumor Incidence: 0/10
  Mammary Tumor Incidence (%): 0%
[9]; Table III, 18 weeks, MNU high dose (50 mg/kg), 391 mg/kg diet
  Total Number of Tumors: 48
[9]; [21]
  Mammary Tumor Incidence: 11/17
  Total Number of Tumors: 37
[9]; Table III, 21 weeks, MNU low dose (15 mg/kg), 391 mg/kg diet
  Mammary Tumor Incidence: 5/40
[9]; [22]
  Mammary Tumor Incidence: 3/39
  Mammary Tumor Incidence (%): 8%
  Total Number of Tumors: 4
[9]; [23]
  Mammary Tumor Incidence (%): 0%
  Total Number of Tumors: 0
[9]; [24]
  Mammary Tumor Incidence: 0/10
  Mammary Tumor Incidence (%): 0%

## CC1=C(/C=C/C(C)=C/C=C/C(C)=C\C(=O)O)C(C)(C)CCC1 [13-cis-retinoic acid]
Breast cancer [10]
  effectiveness against breast cancer in the rat model: has not been found to be particularly effective against breast cancer in the rat model
Chemical carcinogenesis
  potency in preventing chemical carcinogenesis relative to retinoic acid or the natural retinyl esters: more potent in preventing chemical carcinogenesis
[11]; in vivo
  toxicity relative to retinoic acid or the natural retinyl esters: considerably less toxic than retinoic acid or the natural retinyl esters

## CC1=C(/C=C/C(C)=C/C=C/C(C)=C/C(=O)O)C(C)(C)CCC1 [Retinoic Acid, retinoic acid, reference compound]
Tracheal epithelium [12]
  lowest concentration causing reversion to normal tracheal epithelium: 10^-9 M
Tracheal epithelium [5]; 10^-8 M
  % of Cultures with Keratin and Keratohyaline Granules: 0%
  % of Cultures with Respective Amounts of Squamous Metaplasia: None: 27%
  % of Cultures with Respective Amounts of Squamous Metaplasia: Marked: 0%
  % of Cultures with Respective Amounts of Squamous Metaplasia: Mild: 23%
  % of Cultures with Respective Amounts of Squamous Metaplasia: Minimal: 49%
  % of Cultures with Respective Amounts of Squamous Metaplasia: Severe: 0%
Tracheal epithelium [5]; 10^-9 M
  % of Cultures with Keratin and Keratohyaline Granules: 3%
  % of Cultures with Respective Amounts of Squamous Metaplasia: None: 16%
  % of Cultures with Respective Amounts of Squamous Metaplasia: Marked: 12%
  % of Cultures with Respective Amounts of Squamous Metaplasia: Mild: 32%
  % of Cultures with Respective Amounts of Squamous Metaplasia: Minimal: 37%
  % of Cultures with Respective Amounts of Squamous Metaplasia: Severe: 2%
Tracheal epithelium [5]; 10^-10 M
  % of Cultures with Keratin and Keratohyaline Granules: 32%
  % of Cultures with Respective Amounts of Squamous Metaplasia: None: 9%
  % of Cultures with Respective Amounts of Squamous Metaplasia: Marked: 17%
  % of Cultures with Respective Amounts of Squamous Metaplasia: Mild: 43%
  % of Cultures with Respective Amounts of Squamous Metaplasia: Minimal: 4%
  % of Cultures with Respective Amounts of Squamous Metaplasia: Severe: 28%
[11]
  toxicity at high dosage levels: too toxic at high dosage levels to be of practical value for cancer prevention in higher mammals

## CC(=O)OC/C=C(C)/C=C/C=C(C)/C=C/C1=C(C)CCCC1(C)C [Retinyl Acetate, retinyl acetate, reference compound]
[11]
  toxicity at high dosage levels: too toxic at high dosage levels to be of practical value for cancer prevention in higher mammals
[9]; [25]
  Mammary Tumor Incidence: 5/19
  Mammary Tumor Incidence (%): 26%
[9]; [26]
  Mammary Tumor Incidence: 4/17
  Mammary Tumor Incidence (%): 24%
[9]; [27]
  Mammary Tumor Incidence: 0/39
  Mammary Tumor Incidence (%): 0%
[9]; [28]
  Mammary Tumor Incidence: 0/40
  Mammary Tumor Incidence (%): 0%
[9]; [29]
  Mammary Tumor Incidence: 0/10
  Mammary Tumor Incidence (%): 0%
[9]; [30]
  Mammary Tumor Incidence: 0/10
  Mammary Tumor Incidence (%): 0%

## CCCCCCCCCCCCCCCC(=O)OC/C=C(C)/C=C/C=C(C)/C=C/C1=C(C)CCCC1(C)C [retinyl palmitate]
[11]
  toxicity at high dosage levels: too toxic at high dosage levels to be of practical value for cancer prevention in higher mammals
